Results reported in US20240391882A1 (Mirati Therapeutics, Inc., priority 2023, published 2024).

What was measured:
Type in all cases: cell-based
[1] = test system: T47D (PI3Kα H1047R mutant) cells; experiment: Cell viability (CellTiter-Glo 2.0) in T47D cells; conditions: Homo sapiens, T47D, 72 h, approximately 72 hours
In short: (§1)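 SKBR3 or T47D cells, 1000 per well, were seeded overnight and then exposed ~72 h at 37° C to 10 concentrations of compound, 1:4 dilutions from 10 μm. Viability read by CellTiter-Glo luminescence as percent of vehicle; IC50 from four-parameter variable-slope fit.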

[2] = test system: SKBR3 (PI3Kα wild type) cells; experiment: Cell viability (CellTiter-Glo 2.0) in SKBR3 cells; conditions: Homo sapiens, SK-BR-3; SKBR3 (PI3Kα wild type) cells, approximately 72 hours, CellTiter-Glo 2.0; read-out: SKBR3 (WT) Viability IC50
In short: as §1

[3] = test system: pAKT in T47D (PI3Kα H1047R mutant) cells; experiment: Inhibition of pAKT (alphaLISA Surefire Ultra AKT 1/2/3 pS473) in T47D cells; conditions: Homo sapiens; T47D (PI3Kα H1047R mutant) cells, 24 hr compound incubation, alphaLISA pS473; read-out: T47D (H1047R) pAKT 24 hr (IC50)
In short: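 Cells in HBSS were dosed from 10.4 μm (1:4 serial dilution, 10 concentrations) and incubated about 24 hours at 37° C, then lysed. pAKT S473 measured by alphaLISA after overnight bead incubation. Signal normalised to alpelisib (3.125 μm) and DMSO controls; IC50 from four-parameter fit.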

Row | SMILES | IC50 [1] [µM] | IC50 [2] [µM] | IC50 [3] [µM]
1 | C[C@@H](Nc1ccc(Cl)nc1C(=O)O)c1cc(Cl)cc2nc(C#N)c(N3CC4(COC4)C3)nc12 [Example 145] | 0.09 | 9.96 | 0.0014
2 | Cc1cc([C@@H](C)Nc2ccc(Cl)nc2C(=O)O)c2nc(N3CCC(F)(F)CC3)c(C)nc2c1 [Example 35, (R)-6-chloro-3-((1-(3-(4,4-difluoropiperidin-1-yl)-2,7-dimethylquinoxalin-5-yl)ethyl)amino)picolinic acid] | 0.166 | 8.29 | 0.0031
3 | Cc1cc([C@@H](C)Nc2ccc(Cl)nc2C(=O)O)c2nc(C3CC3)c(C#N)nc2c1 [Example 44, (R)-6-chloro-3-((1-(2-cyano-3-cyclopropyl-7-methylquinoxalin-5-yl)ethyl)amino)picolinic acid] | 0.157 | > 10 | 0.002
4 | Cc1cc([C@@H](C)Nc2ccc(Cl)nc2C(=O)O)c2nc(N3CC4(CC(O)C4)C3)c(C#N)nc2c1 [Example 259, (R)-6-chloro-3-((1-(2-cyano-3-(6-hydroxy-2-azaspiro[3.3]heptan-2-yl)-7-methylquinoxalin-5-yl)ethyl)amino)picolinic acid] | 0.075 | > 10 | 0.0015
5 | Cc1cc([C@@H](C)Nc2ccc(Cl)nc2C(=O)O)c2nc(N3CC4C[C@]4(C(F)(F)F)C3)c(C#N)nc2c1 (single isomer, unassigned) [Example 43B] | 0.271 | 4.03 | 0.0168
6 | C[C@@H](Nc1ccc(Cl)nc1C(=O)O)c1cc(C(F)F)cc2nc(C#N)c(N3CCOCC3)nc12 [Example 231, (R)-6-chloro-3-((1-(2-cyano-7-(difluoromethyl)-3-morpholinoquinoxalin-5-yl)ethyl)amino)picolinic acid] | 0.0258 | > 10 | 0.0013
7 | COC[C@H]1CN(c2nc3c([C@@H](C)Nc4ccc(Cl)nc4C(=O)O)cc(C)cc3nc2C#N)CC1(F)F (single isomer, unassigned) [Example 211B] | 0.0027 | 6.8 | 0.0026
8 | Cc1cc([C@@H](C)Nc2ccc(Cl)nc2C(=O)O)c2nc(N3CC4CC(C3)C4(F)F)c(C#N)nc2c1 [Example 7, 6-chloro-3-(((1R)-1-(2-cyano-3-(6,6-difluoro-3-azabicyclo[3.1.1]heptan-3-yl)-7-methylquinoxalin-5-yl)ethyl)amino)picolinic acid] | 0.0598 | > 10 | 0.0008
9 | Cc1cc([C@@H](C)Nc2ccccc2C(=O)O)c2nc(N3CCN(C(=O)C[C@@H]4CC4(F)F)CC3)c(C#N)nc2c1 (single isomer, unassigned) [Example 197] | 0.105 | > 10 | 0.0018
10 | Cc1cc([C@@H](C)Nc2ccc(Cl)nc2C(=O)O)c2nc(N3CCC(F)(F)C3)c(C#N)nc2c1 [Example 70, (R)-6-chloro-3-((1-(2-cyano-3-(3,3-difluoropyrrolidin-1-yl)-7-methylquinoxalin-5-yl)ethyl)amino)picolinic acid] | 0.031 | 9.65 | 0.0026
11 | CO[C@H]1CCCN(c2nc3c([C@@H](C)Nc4ccc(Cl)nc4C(=O)O)cc(C)cc3nc2C#N)C1 [Example 196A, 6-chloro-3-(((R)-1-(2-cyano-3-((S)-3-methoxypiperidin-1-yl)-7-methylquinoxalin-5-yl)ethyl)amino)picolinic acid] | 0.0621 | > 10 | 0.0012
12 | Cc1cc([C@@H](C)Nc2ccc(Cl)nc2C(=O)O)c2nc(N3CC4C(F)C4C3)c(C#N)nc2c1 (stereo partly drawn) [Example 215, 6-chloro-3-(((1R)-1-(2-cyano-3-(6-fluoro-3-azabicyclo[3.1.0]hexan-3-yl)-7-methylquinoxalin-5-yl)ethyl)amino)picolinic acid] | 0.028 | > 10 | 0.0016
13 | Cc1cc([C@@H](C)Nc2ccc(Cl)nc2C(=O)O)c2nc(N3C[C@@H]4COC[C@H]4C3)c(C#N)nc2c1 (single isomer, unassigned) [Example 229B] | 0.0186 | 4.92 | 0.0012
14 | CO[C@@H]1CCCN(c2nc3c([C@@H](C)Nc4ccc(Cl)nc4C(=O)O)cc(C)cc3nc2C#N)C1 [Example 196B, 6-chloro-3-(((R)-1-(2-cyano-3-((R)-3-methoxypiperidin-1-yl)-7-methylquinoxalin-5-yl)ethyl)amino)picolinic acid] | 0.0614 | > 10 | 0.0022
15 | Cc1cc(C(C)Nc2ccccc2C(=O)O)c2nc(N3Cc4ccccc4C3)c(C#N)nc2c1 (stereo not drawn) [Example 2, 2-((1-(2-cyano-3-(isoindolin-2-yl)-7-methylquinoxalin-5-yl)ethyl)amino)benzoic acid] | 0.631 | > 10 | 0.0182
16 | Cc1cc([C@@H](C)Nc2ccccc2C(=O)O)c2nc(C3CC3)c(C#N)nc2c1 [Example 67, (R)-2-((1-(2-cyano-3-cyclopropyl-7-methylquinoxalin-5-yl)ethyl)amino)benzoic acid] | 0.687 | 2.77 | 0.072
17 | Cc1cc([C@@H](C)Nc2ccc(Cl)nc2C(=O)O)c2nc(N3C[C@@H](F)[C@@H](C)C3)c(C#N)nc2c1 [Example 245, 6-chloro-3-(((R)-1-(2-cyano-3-((3S,4S)-3-fluoro-4-methylpyrrolidin-1-yl)-7-methylquinoxalin-5-yl)ethyl)amino)picolinic acid] | 0.063 | 5.51 | 0.0011

Continued, values first:

Row | IC50 [1] [µM] | IC50 [2] [µM] | IC50 [3] [µM] | SMILES
18 | 0.079 | > 10 | 0.0032 | Cc1cc([C@@H](C)Nc2ccc(Cl)nc2C(=O)O)c2nc(N3CCC[C@H]([C@H](C)O)C3)c(C#N)nc2c1 [Example 261A, 6-chloro-3-(((R)-1-(2-cyano-3-((S)-3-((S)-1-hydroxyethyl)piperidin-1-yl)-7-methylquinoxalin-5-yl)ethyl)amino)picolinic acid]
19 | 0.062 | 2.86 | 0.00034 | Cc1cc([C@@H](C)Nc2ccc(Cl)nc2C(=O)O)c2nc(N3C[C@@H]4CO[C@@H](C4)C3)c(C#N)nc2c1 (single isomer, unassigned) [Example 243A]
20 | 0.137 | 8.17 | 0.0043 | Cc1cc([C@@H](C)Nc2ccc(Cl)nc2C(=O)O)c2nc(N3C[C@@H](C)OC[C@H]3C)c(C#N)nc2c1 [Example 237A, 6-chloro-3-(((R)-1-(2-cyano-3-((2R,5R)-2,5-dimethylmorpholino)-7-methylquinoxalin-5-yl)ethyl)amino)picolinic acid]
21 | 0.152 | 3.8 | 0.0061 | Cc1cc([C@@H](C)Nc2ccc(Cl)nc2C(=O)O)c2nc(N3C[C@H](C)OC[C@@H]3C)c(C#N)nc2c1 [Example 237B, 6-chloro-3-(((R)-1-(2-cyano-3-((2S,5S)-2,5-dimethylmorpholino)-7-methylquinoxalin-5-yl)ethyl)amino)picolinic acid]
22 | 0.098 | > 10 | 0.0026 | Cc1cc([C@@H](C)Nc2ccc(Cl)nc2C(=O)O)c2nc(N3CCC[C@H]([C@@H](C)O)C3)c(C#N)nc2c1 [Example 261B, 6-chloro-3-(((R)-1-(2-cyano-3-((S)-3-((R)-1-hydroxyethyl)piperidin-1-yl)-7-methylquinoxalin-5-yl)ethyl)amino)picolinic acid]
23 | 0.078 | > 10 | 0.0021 | Cc1cc([C@@H](C)Nc2ccc(Cl)nc2C(=O)O)c2nc(N3CCC[C@@H]([C@H](C)O)C3)c(C#N)nc2c1 [Example 261C, 6-chloro-3-(((R)-1-(2-cyano-3-((R)-3-((S)-1-hydroxyethyl)piperidin-1-yl)-7-methylquinoxalin-5-yl)ethyl)amino)picolinic acid]
24 | 0.183 | > 10 | 0.002 | Cc1cc([C@@H](C)Nc2ccc(Cl)nc2C(=O)O)c2nc(N3CCO[C@H](CO)C3)c(C#N)nc2c1 [Example 235A, 6-chloro-3-(((R)-1-(2-cyano-3-((S)-2-(hydroxymethyl)morpholino)-7-methylquinoxalin-5-yl)ethyl)amino)picolinic acid]
25 | 0.076 | > 10 | 0.0012 | Cc1cc([C@@H](C)Nc2ccc(Cl)nc2C(=O)O)c2nc(N3CCC[C@@H]([C@@H](C)O)C3)c(C#N)nc2c1 [Example 261D, 6-chloro-3-(((R)-1-(2-cyano-3-((R)-3-((R)-1-hydroxyethyl)piperidin-1-yl)-7-methylquinoxalin-5-yl)ethyl)amino)picolinic acid]
26 | 0.057 | > 10 | 0.0012 | Cc1cc([C@@H](C)Nc2ccc(Cl)nc2C(=O)O)c2nc(N3CC4CC[C@@]4(F)C3)c(C#N)nc2c1 (single isomer, unassigned) [Example 244A]
27 | 0.061 | 4.92 | 0.0018 | Cc1cc([C@@H](C)Nc2ccc(Cl)nc2C(=O)O)c2nc(N3C[C@H](F)C[C@@H]3C)c(C#N)nc2c1 [Example 246B, 6-chloro-3-(((R)-1-(2-cyano-3-((2S,4R)-4-fluoro-2-methylpyrrolidin-1-yl)-7-methylquinoxalin-5-yl)ethyl)amino)picolinic acid]
